# Read-outs that look alike come from different tables or passages of the source.
# How the values were obtained:
# NCI-H522 = assay: cells; conditions: Homo sapiens
# LOX IMV1 = assay: in vitro test at 1.0×10^−5 M, Skin cancer cell; format: cell-based; conditions: 1.0×10^−5 molal concentration (M)
# DU-145 [1] = test system: DU-145
# HOP-92 [2] = test system: HOP-92
# NCI-H23 [3] = assay: cells; conditions: Homo sapiens
# NCI-H226 [4] = assay: cells; conditions: Homo sapiens
# HOP-92 [5] = assay: cells; conditions: Homo sapiens
# NCI-H460 [6] = assay: cells; conditions: Homo sapiens
# HL-60(TB) [7] = assay: cells; conditions: Homo sapiens
# A549/ATCC [8] = test system: A549/ATCC
# HOP-62 [9] = assay: cells; conditions: Homo sapiens
# CCRF-CEM [10] = assay: cells; conditions: Homo sapiens
# HOP-62 [11] = test system: HOP-62
# NCI-H460 [12] = test system: NCI-H460
# RPMI-8226 [13] = assay: cells; conditions: Homo sapiens
# CCRF-CEM [14] = test system: CCRF-CEM
# DU-145 [15] = assay: cells; conditions: Homo sapiens
# NCI-H23 [16] = test system: NCI-H23
# RPMI-8226 [17] = test system: RPMI-8226
# A549/ATCC [18] = assay: cells; conditions: Homo sapiens
# K-562 [19] = assay: cells; conditions: Homo sapiens
# HS 578T = assay: in vitro test at 1.0×10^−5 M, Breast cancer cell; format: cell-based; conditions: 1.0×10^−5 molal concentration (M)
# HL-60(TB) [20] = test system: HL-60(TB)
# K-562 [21] = test system: K-562
# HOP-62 [22] = assay: in vitro test at 1.0×10^−5 M, Non-small cell lung cancer cell; format: cell-based; conditions: 1.0×10^−5 molal concentration (M)
# EKVX = assay: cells; conditions: Homo sapiens
# NCI-H226 [23] = test system: NCI-H226
# HCC-2998 = assay: in vitro test at 1.0×10^−5 M, Colorectal cancer cell; format: cell-based; conditions: 1.0×10^−5 molal concentration (M)
# [24] = test system: different cancer cell lines; assay: in vitro test at 1.0×10^−5 M, summary over the cell lines; format: cell-based; conditions: 1.0×10^−5 molal concentration (M)
smiles,measurement,setting,value
"O=C1c2ccccc2C(=O)c2c1ccc1nsnc21 [No. 22, Anthra[2,1-c][1,2,5]thiadiazole-6,11-dione]",GI50,NCI-H522; NCI-H522,3.01 µM
same,CC50,"NCI-H522; NCI-H522, read-out: LC50",> 100 µM
same,inhibition effect on cancer cell line (Table 2 value),LOX IMV1,−50.6
same,TGI,DU-145 [1]; DU-145,1.95E−5
same,Percent Growth,DU-145 [1]; Log10 Concentration −4.0,−100%
same,Percent Growth,DU-145 [1]; Log10 Concentration −5.0,41%
same,Percent Growth,DU-145 [1]; Log10 Concentration −6.0,110%
same,Percent Growth,DU-145 [1]; Log10 Concentration −7.0,114%
same,Percent Growth,DU-145 [1]; Log10 Concentration −8.0,110%
same,TGI,HOP-92 [2]; HOP-92,9.84E−6
same,Percent Growth,HOP-92 [2]; Log10 Concentration −4.0,−27%
same,Percent Growth,HOP-92 [2]; Log10 Concentration −5.0,−1%
same,Percent Growth,HOP-92 [2]; Log10 Concentration −6.0,94%
same,Percent Growth,HOP-92 [2]; Log10 Concentration −7.0,88%
same,Percent Growth,HOP-92 [2]; Log10 Concentration −8.0,95%
same,GI50,NCI-H23 [3]; NCI-H23,0.802 µM
same,CC50,"NCI-H23 [3]; NCI-H23, read-out: LC50",> 100 µM
same,GI50,NCI-H226 [4]; NCI-H226,15.6 µM
same,CC50,"NCI-H226 [4]; NCI-H226, read-out: LC50",> 100 µM
same,GI50,HOP-92 [5]; HOP-92,2.91 µM
same,CC50,"HOP-92 [5]; HOP-92, read-out: LC50",> 100 µM
same,GI50,NCI-H460 [6]; NCI-H460,1.84 µM
same,CC50,"NCI-H460 [6]; NCI-H460, read-out: LC50",9.54 µM
same,GI50,HL-60(TB) [7]; HL-60,2.14 µM
same,CC50,"HL-60(TB) [7]; HL-60, read-out: LC50",> 100 µM
same,TGI,A549/ATCC [8]; A549/ATCC,5.94E−6
same,Percent Growth,A549/ATCC [8]; Log10 Concentration −4.0,−18%
same,Percent Growth,A549/ATCC [8]; Log10 Concentration −5.0,−27%
same,Percent Growth,A549/ATCC [8]; Log10 Concentration −6.0,92%
same,Percent Growth,A549/ATCC [8]; Log10 Concentration −7.0,93%
same,Percent Growth,A549/ATCC [8]; Log10 Concentration −8.0,104%
same,GI50,HOP-62 [9]; HOP-62,3.59 µM
same,CC50,"HOP-62 [9]; HOP-62, read-out: LC50",> 100 µM
same,GI50,CCRF-CEM [10],2.18 µM
same,CC50,CCRF-CEM [10]; read-out: LC50,> 100 µM
same,TGI,HOP-62 [11]; HOP-62,1.21E−5
same,Percent Growth,HOP-62 [11]; Log10 Concentration −4.0,−49%
same,Percent Growth,HOP-62 [11]; Log10 Concentration −5.0,4%
same,Percent Growth,HOP-62 [11]; Log10 Concentration −6.0,107%
same,Percent Growth,HOP-62 [11]; Log10 Concentration −7.0,107%
same,Percent Growth,HOP-62 [11]; Log10 Concentration −8.0,107%
same,Percent Growth,NCI-H460 [12]; Log10 Concentration −4.0,−58%
same,Percent Growth,NCI-H460 [12]; Log10 Concentration −5.0,−53%
same,Percent Growth,NCI-H460 [12]; Log10 Concentration −6.0,87%
same,Percent Growth,NCI-H460 [12]; Log10 Concentration −7.0,97%
same,Percent Growth,NCI-H460 [12]; Log10 Concentration −8.0,100%
same,TGI,NCI-H460 [12]; NCI-H460,4.19E−6
same,GI50,RPMI-8226 [13]; RPMI-8226,1.53 µM
same,CC50,"RPMI-8226 [13]; RPMI-8226, read-out: LC50",> 100 µM
same,TGI,CCRF-CEM [14]; CCRF-CEM,>1.00E−4
same,Percent Growth,CCRF-CEM [14]; Log10 Concentration −4.0,2%
same,Percent Growth,CCRF-CEM [14]; Log10 Concentration −5.0,2%
same,Percent Growth,CCRF-CEM [14]; Log10 Concentration −6.0,74%
same,Percent Growth,CCRF-CEM [14]; Log10 Concentration −7.0,90%
same,Percent Growth,CCRF-CEM [14]; Log10 Concentration −8.0,97%
same,GI50,DU-145 [15]; DU-145,7.41 µM
same,CC50,"DU-145 [15]; DU-145, read-out: LC50",44.2 µM
same,Percent Growth,NCI-H23 [16]; Log10 Concentration −4.0,−35%
same,Percent Growth,NCI-H23 [16]; Log10 Concentration −5.0,−37%
same,Percent Growth,NCI-H23 [16]; Log10 Concentration −6.0,46%
same,Percent Growth,NCI-H23 [16]; Log10 Concentration −7.0,91%
same,Percent Growth,NCI-H23 [16]; Log10 Concentration −8.0,101%
same,TGI,NCI-H23 [16]; NCI-H23,3.59E−6
same,Percent Growth,RPMI-8226 [17]; Log10 Concentration −4.0,−20%
same,Percent Growth,RPMI-8226 [17]; Log10 Concentration −6.0,61%
same,Percent Growth,RPMI-8226 [17]; Log10 Concentration −7.0,94%
same,Percent Growth,RPMI-8226 [17]; Log10 Concentration −8.0,100%
same,TGI,RPMI-8226 [17]; RPMI-8226,9.91E−6
same,GI50,A549/ATCC [18]; A549,2.25 µM
same,CC50,"A549/ATCC [18]; A549, read-out: LC50",> 100 µM
same,GI50,K-562 [19]; K562,3.23 µM
same,CC50,"K-562 [19]; K562, read-out: LC50",> 100 µM
same,inhibition effect on cancer cell line (Table 2 value),HS 578T,−7.40
same,TGI,HL-60(TB) [20]; HL-60(TB),5.13E−6
same,Percent Growth,HL-60(TB) [20]; Log10 Concentration −4.0,−43%
same,Percent Growth,HL-60(TB) [20]; Log10 Concentration −5.0,−38%
same,Percent Growth,HL-60(TB) [20]; Log10 Concentration −6.0,93%
same,Percent Growth,HL-60(TB) [20]; Log10 Concentration −7.0,102%
same,Percent Growth,HL-60(TB) [20]; Log10 Concentration −8.0,103%
same,TGI,K-562 [21]; K-562,4.92E−5
same,Percent Growth,K-562 [21]; Log10 Concentration −4.0,−8%
same,Percent Growth,K-562 [21]; Log10 Concentration −5.0,19%
same,Percent Growth,K-562 [21]; Log10 Concentration −6.0,83%
same,Percent Growth,K-562 [21]; Log10 Concentration −7.0,96%
same,Percent Growth,K-562 [21]; Log10 Concentration −8.0,101%
same,Percent Growth,PC-3; Log10 Concentration −4.0,4%
same,Percent Growth,PC-3; Log10 Concentration −5.0,11%
same,Percent Growth,PC-3; Log10 Concentration −6.0,86%
same,Percent Growth,PC-3; Log10 Concentration −7.0,92%
same,Percent Growth,PC-3; Log10 Concentration −8.0,96%
same,TGI,PC-3; PC-3,>1.00E−4
same,inhibition effect on cancer cell line (Table 2 value),HOP-62 [22],−100.00
same,Percent Growth,MOLT-4; Log10 Concentration −4.0,−38%
same,Percent Growth,MOLT-4; Log10 Concentration −5.0,−40%
same,Percent Growth,MOLT-4; Log10 Concentration −6.0,73%
same,Percent Growth,MOLT-4; Log10 Concentration −7.0,99%
same,Percent Growth,MOLT-4; Log10 Concentration −8.0,97%
same,TGI,MOLT-4; MOLT-4,4.43E−6
same,GI50,EKVX,2.19 µM
same,CC50,EKVX; read-out: LC50,56.5 µM
same,Percent Growth,NCI-H226 [23]; Log10 Concentration −4.0,−5%
same,Percent Growth,NCI-H226 [23]; Log10 Concentration −5.0,63%
same,Percent Growth,NCI-H226 [23]; Log10 Concentration −6.0,75%
same,Percent Growth,NCI-H226 [23]; Log10 Concentration −7.0,95%
same,Percent Growth,NCI-H226 [23]; Log10 Concentration −8.0,97%
same,TGI,NCI-H226 [23]; NCI-H226,8.53E−5
same,inhibition effect on cancer cell line (Table 2 value),HCC-2998,−50.00
same,Mean,[24],2.68

# Source: patent US8445492B2, “Method for inhibiting growth of cancer cells and cell telomere and diseases of cell proliferation by using heteroannelated anthraquinone derivative compounds” (National Defense Medical Center, priority 2008, dated 2013)
